Measured values from article PMC5068113 (Pharmacognosy Magazine, 2016).
In brackets after ≈: the same amount, converted by molar mass.

Assays:
Assay in all cases: CYP inhibition by substrate-cocktail method in HLM
Format in all cases: in vitro ADME
[1] = target: CYP2D6 (Homo sapiens, UniProt P10635); conditions: human liver microsomes, pH 7.4, probe dextromethorphan
[2] = target: T1, CYP1A2 (Homo sapiens, UniProt P05177); conditions: human liver microsomes, pH 7.4, probe tacrine
T1 sequence (P05177 1-516): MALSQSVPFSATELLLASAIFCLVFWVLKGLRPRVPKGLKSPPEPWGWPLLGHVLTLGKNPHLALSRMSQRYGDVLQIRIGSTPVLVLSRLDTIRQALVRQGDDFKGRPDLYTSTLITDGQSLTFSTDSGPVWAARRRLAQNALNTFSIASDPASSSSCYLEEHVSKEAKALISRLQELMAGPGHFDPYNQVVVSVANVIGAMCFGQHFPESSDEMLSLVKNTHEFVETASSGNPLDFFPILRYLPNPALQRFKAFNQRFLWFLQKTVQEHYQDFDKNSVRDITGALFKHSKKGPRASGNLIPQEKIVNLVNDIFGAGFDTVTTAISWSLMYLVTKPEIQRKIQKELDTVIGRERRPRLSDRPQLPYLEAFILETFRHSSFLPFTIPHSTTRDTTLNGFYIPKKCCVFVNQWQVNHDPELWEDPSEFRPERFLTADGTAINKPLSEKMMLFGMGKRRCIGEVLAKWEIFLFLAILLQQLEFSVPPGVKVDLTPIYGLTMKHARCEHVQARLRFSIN

[3] = target: CYP2C9 (Homo sapiens, UniProt P11712); conditions: human liver microsomes, pH 7.4, probe diclofenac
[4] = target: T2, human CYP2C8 (Homo sapiens, UniProt P10632)
T2 sequence (P10632 1-490): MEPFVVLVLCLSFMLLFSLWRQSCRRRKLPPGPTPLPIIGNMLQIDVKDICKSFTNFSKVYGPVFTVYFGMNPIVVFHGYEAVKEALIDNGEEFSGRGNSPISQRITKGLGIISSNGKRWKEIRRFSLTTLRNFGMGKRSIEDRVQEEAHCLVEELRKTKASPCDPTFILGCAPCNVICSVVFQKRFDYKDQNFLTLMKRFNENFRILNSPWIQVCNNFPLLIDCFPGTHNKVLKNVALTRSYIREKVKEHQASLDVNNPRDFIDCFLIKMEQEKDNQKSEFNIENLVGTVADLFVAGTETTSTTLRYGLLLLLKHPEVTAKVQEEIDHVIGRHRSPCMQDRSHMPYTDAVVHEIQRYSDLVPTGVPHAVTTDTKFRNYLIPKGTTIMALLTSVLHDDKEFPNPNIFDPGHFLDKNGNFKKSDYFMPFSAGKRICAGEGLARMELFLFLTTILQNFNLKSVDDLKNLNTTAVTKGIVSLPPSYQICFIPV

Chain of CYP2D6 (P10635 whole entry): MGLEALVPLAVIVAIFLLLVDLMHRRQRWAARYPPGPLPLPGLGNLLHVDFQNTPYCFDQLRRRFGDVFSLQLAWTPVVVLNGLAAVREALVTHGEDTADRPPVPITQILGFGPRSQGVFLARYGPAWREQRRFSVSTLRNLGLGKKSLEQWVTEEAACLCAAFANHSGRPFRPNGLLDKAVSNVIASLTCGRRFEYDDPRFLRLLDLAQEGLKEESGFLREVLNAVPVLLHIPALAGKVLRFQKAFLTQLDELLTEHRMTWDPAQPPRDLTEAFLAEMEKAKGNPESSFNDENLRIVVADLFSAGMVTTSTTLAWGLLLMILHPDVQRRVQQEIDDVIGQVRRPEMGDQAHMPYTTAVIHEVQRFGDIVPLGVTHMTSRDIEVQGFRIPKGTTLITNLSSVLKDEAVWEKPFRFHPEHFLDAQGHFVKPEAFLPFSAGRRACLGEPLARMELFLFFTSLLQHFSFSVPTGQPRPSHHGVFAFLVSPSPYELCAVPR
Chain of CYP2C9 (P11712 whole entry): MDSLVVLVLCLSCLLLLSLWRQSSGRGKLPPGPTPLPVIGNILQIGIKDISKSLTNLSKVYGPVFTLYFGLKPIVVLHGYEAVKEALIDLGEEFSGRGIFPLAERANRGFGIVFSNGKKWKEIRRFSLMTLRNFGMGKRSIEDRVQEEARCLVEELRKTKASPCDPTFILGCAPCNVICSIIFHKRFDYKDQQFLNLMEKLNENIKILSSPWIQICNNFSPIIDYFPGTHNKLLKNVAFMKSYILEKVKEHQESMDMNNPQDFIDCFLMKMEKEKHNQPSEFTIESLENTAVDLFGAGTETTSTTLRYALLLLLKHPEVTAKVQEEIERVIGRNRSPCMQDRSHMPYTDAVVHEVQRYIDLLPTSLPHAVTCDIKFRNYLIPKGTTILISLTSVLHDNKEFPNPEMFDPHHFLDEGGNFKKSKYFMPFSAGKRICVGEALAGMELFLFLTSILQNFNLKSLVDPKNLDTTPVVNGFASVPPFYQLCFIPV

IC50 at 8 min [1] [µg/mL] | IC50 at 8 min [2] [µg/mL] | IC50 at 8 min [3] [µg/mL] | effect on CYP2C8 activity (in words) [4] | SMILES
0.56 (≈ 1.35 µM) | 0.89 (≈ 2.14 µM) | 0.19 (≈ 0.457 µM) |  | Clc1ccc(COC(Cn2ccnc2)c2ccc(Cl)cc2Cl)c(Cl)c1 (stereo not shown) [MCZN, miconazole]
 |  |  | unaffected | CC1(CO)C(O[C@@H]2O[C@H](C(=O)O)[C@@H](O)[C@H](O)[C@H]2O)CC[C@@]2(C)C1CC[C@]1(C)C2CC=C2[C@H]3CC(C)(C)[C@H](O)[C@@H](O)[C@]3(CO)[C@H](O)C[C@]21C (stereo partly shown) [DGA, deacylgymnemic acid]
